Reference: PubChem BioAssay AID1259407 (Chemical Carcinogenesis Research Information System (CCRIS), 2018)
The source made the active and inactive calls. How the calls were made is not given here.

System: CCRIS mutagenicity, Ames/micronucleus/aberration tests
Assay: CCRIS mutagenicity studies
[1] = Test System: AMES SALMONELLA TYPHIMURIUM, Strain/Indicator: TA98, Metabolic Activation: NONE, Method: PREINCUBATION
[2] = Test System: AMES SALMONELLA TYPHIMURIUM, Strain/Indicator: TA100, Metabolic Activation: NONE, Method: PREINCUBATION

Compound: O.O.O.O.O.O.O=[N+]([O-])O.O=[N+]([O-])O.[Zn]
- mutagenic call [1]: inactive; negative
- mutagenic call (Test System: AMES SALMONELLA TYPHIMURIUM, Strain/Indicator: TA98, Metabolic Activation: RAT LIVER S-9, PHENOBARBITAL AND BETA-NAPHTHOFLAVONE, Method: PREINCUBATION): inactive; negative
- mutagenic call [2]: inactive; negative
- mutagenic call (Test System: AMES SALMONELLA TYPHIMURIUM, Strain/Indicator: TA100, Metabolic Activation: RAT LIVER S-9, PHENOBARBITAL AND BETA-NAPHTHOFLAVONE, Method: PREINCUBATION): inactive; negative
- mutagenic call (Test System: AMES SALMONELLA TYPHIMURIUM, Strain/Indicator: TA1535, Metabolic Activation: NONE, Method: PREINCUBATION): inactive; negative
- mutagenic call (Test System: AMES SALMONELLA TYPHIMURIUM, Strain/Indicator: TA1535, Metabolic Activation: RAT LIVER S-9, PHENOBARBITAL AND BETA-NAPHTHOFLAVONE, Method: PREINCUBATION): inactive; negative
- mutagenic call (Test System: AMES SALMONELLA TYPHIMURIUM, Strain/Indicator: TA1537, Metabolic Activation: NONE, Method: PREINCUBATION): inactive; negative
- mutagenic call (Test System: AMES SALMONELLA TYPHIMURIUM, Strain/Indicator: TA1537, Metabolic Activation: RAT LIVER S-9, PHENOBARBITAL AND BETA-NAPHTHOFLAVONE, Method: PREINCUBATION): inactive; negative
- mutagenic call (Test System: AMES SALMONELLA TYPHIMURIUM, Strain/Indicator: TA1538, Metabolic Activation: NONE, Method: PREINCUBATION): inactive; negative
- mutagenic call (Test System: AMES SALMONELLA TYPHIMURIUM, Strain/Indicator: TA1538, Metabolic Activation: RAT LIVER S-9, PHENOBARBITAL AND BETA-NAPHTHOFLAVONE, Method: PREINCUBATION): inactive; negative
- mutagenic call (Test System: E.COLI, Strain/Indicator: WP2UVRA, Metabolic Activation: NONE, Method: PREINCUBATION): inactive; negative
- mutagenic call (Test System: E.COLI, Strain/Indicator: WP2UVRA, Metabolic Activation: RAT LIVER S-9, PHENOBARBITAL AND BETA-NAPHTHOFLAVONE, Method: PREINCUBATION): inactive; negative

Compound: O=[N+]([O-])c1ccc2oc3ccccc3c2c1
- mutagenic call (Test System: AMES SALMONELLA TYPHIMURIUM, Strain/Indicator: TA98(1,8-DNP6), Metabolic Activation: NONE, Method: PREINCUBATION): active; positive
- mutagenic call (Test System: AMES SALMONELLA TYPHIMURIUM, Strain/Indicator: TA98(1,8-DNP6), Metabolic Activation: NONE, Method: SUSPENSION): active; positive
- mutagenic call (Test System: AMES SALMONELLA TYPHIMURIUM, Strain/Indicator: TA98(1,8-DNP6), Metabolic Activation: RAT, LIVER, S-9, PCB (5%), Method: PREINCUBATION): active; positive
- mutagenic call (Test System: AMES SALMONELLA TYPHIMURIUM, Strain/Indicator: TA98(NR), Metabolic Activation: NONE, Method: PREINCUBATION): active; positive
- mutagenic call (Test System: AMES SALMONELLA TYPHIMURIUM, Strain/Indicator: TA98(NR), Metabolic Activation: NONE, Method: SUSPENSION): inactive; negative
- mutagenic call (Test System: AMES SALMONELLA TYPHIMURIUM, Strain/Indicator: TA98(NR), Metabolic Activation: RAT, LIVER, S-9 (10%), Method: PREINCUBATION): active; positive
- mutagenic call (Test System: AMES SALMONELLA TYPHIMURIUM, Strain/Indicator: TA98(NR), Metabolic Activation: RAT, LIVER, S-9, 3-METHYLCHOLANTHRENE (10%), Method: PREINCUBATION): active; positive
- mutagenic call (Test System: AMES SALMONELLA TYPHIMURIUM, Strain/Indicator: TA98(NR), Metabolic Activation: RAT, LIVER, S-9, BETA-NAPHTHOFLAVONE (10%), Method: PREINCUBATION): active; positive
- mutagenic call (Test System: AMES SALMONELLA TYPHIMURIUM, Strain/Indicator: TA98(NR), Metabolic Activation: RAT, LIVER, S-9, PCB (5%), Method: PREINCUBATION): active; positive
- mutagenic call (Test System: AMES SALMONELLA TYPHIMURIUM, Strain/Indicator: TA98(NR), Metabolic Activation: RAT, LIVER, S-9, PCB (10%), Method: PREINCUBATION): active; positive
- mutagenic call (Test System: AMES SALMONELLA TYPHIMURIUM, Strain/Indicator: TA98(NR), Metabolic Activation: RAT, LIVER, S-9, PHENOBARBITAL (10%), Method: PREINCUBATION): active; positive
- mutagenic call [1]: active; positive
- mutagenic call (Test System: AMES SALMONELLA TYPHIMURIUM, Strain/Indicator: TA98, Metabolic Activation: NONE, Method: SUSPENSION): active; positive
- mutagenic call (Test System: AMES SALMONELLA TYPHIMURIUM, Strain/Indicator: TA98, Metabolic Activation: RAT, LIVER, S-9, PCB (5%), Method: PREINCUBATION): active; positive
- mutagenic call (Test System: AMES SALMONELLA TYPHIMURIUM, Strain/Indicator: TA98, Metabolic Activation: RAT, LIVER, S-9, PCB, Method: SUSPENSION): active; positive
- mutagenic call [2]: inactive; negative
- mutagenic call (Test System: AMES SALMONELLA TYPHIMURIUM, Strain/Indicator: TA100, Metabolic Activation: NONE, Method: SUSPENSION): inactive; negative
- mutagenic call (Test System: AMES SALMONELLA TYPHIMURIUM, Strain/Indicator: TA100, Metabolic Activation: RAT, LIVER, S-9, PCB (5%), Method: PREINCUBATION): inactive; negative
- mutagenic call (Test System: AMES SALMONELLA TYPHIMURIUM, Strain/Indicator: TA100, Metabolic Activation: RAT, LIVER, S-9, PCB, Method: SUSPENSION): inactive; negative

Compound: CC1c2ccccc2-c2ccc(F)cc21 (stereo unspecified)
- mutagenic call (Test System: AMES SALMONELLA TYPHIMURIUM, Strain/Indicator: TA100, Metabolic Activation: RAT, LIVER, S-9, AROCLOR 1254, Method: STANDARD PLATE): active; positive

Compound: O=[N+]([O-])c1ccc(Cl)cc1
- mutagenic call (End Point: IN VITRO CHROMOSOMAL ABERRATIONS, Test System: CHL CELLS, Metabolic Activation: NONE): active; positive (ploidy changes); precipitation occurred at 0.4, 0.5, and 0.6 mg/ml
- mutagenic call (End Point: IN VITRO CHROMOSOMAL ABERRATIONS, Test System: CHL CELLS, Metabolic Activation: RAT, LIVER, S-9, SODIUM PHENOBARBITAL AND 5,6-BENZOFLAVONE): active; positive (structural changes); authors report equivocal results for ploidy chang
- mutagenic call (End Point: IN VITRO CHROMOSOMAL ABERRATIONS, Test System: HUMAN PERIPHERAL LYMPHOCYTES, Metabolic Activation: NONE): inactive; negative
- mutagenic call [1]: inactive; negative
- mutagenic call (Test System: AMES SALMONELLA TYPHIMURIUM, Strain/Indicator: TA98, Metabolic Activation: RAT, LIVER, S-9, KANECHLOR 500, Method: PREINCUBATION): inactive; negative
- mutagenic call [2]: inactive; negative
- mutagenic call (Test System: Ames Salmonella typhimurium, Strain/Indicator: TA98, Metabolic Activation: None, Method: Preincubation): inactive; negative
- mutagenic call (Test System: Ames Salmonella typhimurium, Strain/Indicator: TA98, Metabolic Activation: Rat, Liver, S9, Sodium phenobarbital and 5,6-benzoflavone (10%), Method: Preincubation): inactive; negative
- mutagenic call (Test System: Ames Salmonella typhimurium, Strain/Indicator: TA98, Metabolic Activation: Rat, Liver, S9, Sodium phenobarbital and 5,6-benzoflavone, Method: Preincubation): inactive; negative
- mutagenic call (Test System: Ames Salmonella typhimurium, Strain/Indicator: TA100, Metabolic Activation: None, Method: Preincubation): inactive; negative
- mutagenic call (Test System: Ames Salmonella typhimurium, Strain/Indicator: TA1535, Metabolic Activation: None, Method: Preincubation): inactive; negative
- mutagenic call (Test System: Ames Salmonella typhimurium, Strain/Indicator: TA1535, Metabolic Activation: Rat, Liver, S9, Sodium phenobarbital and 5,6-benzoflavone (10%), Method: Preincubation): inactive; negative
- mutagenic call (Test System: Ames Salmonella typhimurium, Strain/Indicator: TA1537, Metabolic Activation: None, Method: Preincubation): inactive; negative
- mutagenic call (Test System: Ames Salmonella typhimurium, Strain/Indicator: TA1537, Metabolic Activation: Rat, Liver, S9, Sodium phenobarbital and 5,6-benzoflavone (10%), Method: Preincubation): inactive; negative
- mutagenic call (Test System: Ames Salmonella typhimurium, Strain/Indicator: TA1537, Metabolic Activation: Rat, Liver, S9, Sodium phenobarbital and 5,6-benzoflavone, Method: Preincubation): inactive; negative
- mutagenic call (Test System: E. coli, Strain/Indicator: WP2uvrA/PKM101, Metabolic Activation: None, Method: Preincubation): inactive; negative
- mutagenic call (Test System: E. coli, Strain/Indicator: WP2uvrA/PKM101, Metabolic Activation: Rat, Liver, S9, Sodium phenobarbital and 5,6-benzoflavone (10%), Method: Preincubation): inactive; negative
- mutagenic call (Test System: E. coli, Strain/Indicator: WP2uvrA/pKM101, Metabolic Activation: None, Method: Preincubation): inactive; negative
- mutagenic call (Test System: E. coli, Strain/Indicator: WP2uvrA/pKM101, Metabolic Activation: Rat, Liver, S9, Sodium phenobarbital and 5,6-benzoflavone, Method: Preincubation): inactive; negative

Compound: CC(C)CNC(=O)C=Cc1ccc([N+](=O)[O-])o1
- mutagenic call [1]: active; positive

Compound: O=c1c(=O)c2cccc3ccc4cccc1c4c32
- mutagenic call [1]: inactive; negative
- mutagenic call (Test System: AMES SALMONELLA TYPHIMURIUM, Strain/Indicator: TA98, Metabolic Activation: RAT, LIVER, S-9, AROCLOR 1254, Method: PREINCUBATION): inactive; negative
- mutagenic call [2]: inactive; negative
- mutagenic call (Test System: AMES SALMONELLA TYPHIMURIUM, Strain/Indicator: TA100, Metabolic Activation: RAT, LIVER, S-9, AROCLOR 1254, Method: PREINCUBATION): inactive; negative
